The nature of data set [1]: Pharmacokinetic study in mouse. The data set is classed as in vivo, ICR mice. The conditions noted are these: male, ICR, plasma. How it is done: To estimate the pharmacokinetic parameters in animals, the drug was administered via intravenous (I.V., 5 mg/kg) and oral (P.O., 10 mg/kg) routes in seven-week-old male ICR mice (Orient Bio Inc., Seongnam, Korea). Blood samples were collected at 0.083 (for I.V.), 0.5, 1, 2, 4, 8, and 24 h after drug administrations and then immediately centrifuged at 10,000× g for 3 min. The plasma concentrations of the drug were determined via LC-MS/MS. The plasma concentration–time profiles and pharmacokinetic parameters were estimated using the non-compartmental method with the nonlinear least squares regression program WinNonlin 5.3 (Pharsight, Mountain View, CA, USA).

The test system of data set [2] is MC38 and CT26 cells. The experiment in a line: Apoptosis analysis (Annexin V / propidium iodide). The note with it: 24 h treatment. The data set is classed as cell-based. How it is done: Cells were washed with PBS containing 1% horse serum and stained with the FITC-Annexin V Apoptosis Detection Kit I (BD Biosciences) at room temperature for 30 min in the dark. DNA content, cell-cycle profiles, and forward scatter profiles were determined using the Becton Dickinson LSRFortessa^TM and analyzed with FlowJo software v11.

The test system of data set [3] is p53/p21/caspase-3 signaling pathway in MC38 and CT26 cells. The data set can be described thus: Western blot of apoptosis-regulating proteins. It is filed as cell-based. The note with it: 24 h. How it is done: For the extraction of total protein, cells were treated with 7k for 24 h in a CO2 incubator at 37 °C and washed twice with phosphate-buffered saline (PBS). Cell pellets were lysed using radioimmunoprecipitation assay (RIPA) buffer (Thermo Fisher Scientific) containing a protease and phosphatase inhibitor cocktail kit (Thermo Fisher Scientific). The lysed cells were briefly vortexed at intervals and subsequently centrifuged at 13,000× g at 4 °C. The protein sample was quantified with the bicinchoninic acid (BCA) protein assay kit (Thermo Fisher Scientific).
Equal amounts of proteins were loaded onto 10% sodium dodecyl sulfate polyacrylamide gel electrophoresis and transferred onto PVDF membranes (Millipore, Billerica, MA, USA). The membrane was blocked with 5% skim milk in Tris-buffered saline (TBS) containing Tween-20 (TBS-T) for an hour and probed with the respective primary antibodies in 5% BSA overnight at 4 °C. Following incubation, the membrane was probed with horseradish peroxidase (HRP)-conjugated secondary antibodies for an hour at room temperature. The membrane was washed three times with TBS-T and the signal was visualized using an enhanced chemiluminescence (ECL) detection reagent (GE Healthcare Life Sciences, Pittsburgh, PA, USA).
The primary antibodies used were as follows: Total p53 (Santa Cruz Biotechnology, Dallas, TX, USA, working dilution 1:500), PARP (CST, Danvers, MA, USA; working dilution 1:1000), cleaved caspase3 (CST, MA, USA; working dilution 1:1000), p21 (CST, MA, USA; working dilution 1:1000), Bcl-2 (CST, MA, USA; working dilution 1:1000), AhR (Santa Cruz; working dilution 1:500), LaminB1 (CST, MA, USA; working dilution 1:2000), GAPDH (Abcam, Cambridge, UK; working dilution 1:5000) and β-actin (CST, MA, USA; dilution 1:5000). HRP-conjugated secondary antibodies used were as follows: anti-mouse (CST, MA, USA) and anti-rabbit (CST, MA, USA).
(A western blot detects proteins with antibodies after separation by electrophoresis.)

Data set [4] relates to AhR, AhRR, and IDO-1 mRNA expression in MC38 and CT26 cells. The experiment in a line: qRT-PCR of AhR downstream genes in kynurenine-stimulated cells. The conditions noted are these: 200 μM kynurenine-stimulated MC38 and CT26 cells, 24 h, qPCR. It is filed as cell-based. How it is done:
MC38 and CT26 were treated with different concentrations of 7k and 200 μM Kynurenine for 24 h. RNA from treated cells was extracted and cDNA was synthesized using the ReverTraAce™ qPCR RT Kit (TOYOBO, Osaka, Japan), followed by evaluation of AhR, AhRR, and IDO-1 mRNA expression with quantitative real-time PCR. PCR conditions were 95 °C preincubation, maintained for 1 min, and then 1 cycle of 95 °C denaturation for 15 s, 55 °C annealing for 15 s, and 72 °C polymerization for 45 s. A total of 40 cycles were repeated. Advanced Relative Quantification analysis was used to confirm the structure of the expected quantitative real-time PCR product, and the variability of other gene amplification was calibrated by relative comparison with GAPDH expression (Table 1).

For data set [5], the system named is PD-1 expression in Jurkat/PD-1 cells. The data set can be described thus: PD-1 expression by FACS in PHA-treated Jurkat/PD-1 cells. It is filed as cell-based. The method, then: For analysis of PD-1 expression in PD-1-overexpressing Jurkat T cells (Jurkat/PD-1 cells), Jurkat/PD-1 cells in 24-well plates were treated with 2 μg/mL Phytohaemagglutinin (PHA) and incubated with 5 and 10 μM 7k for 24 h. Cells were collected were stained with APC-conjugated PD-1 Ab at 4 °C for 30 min (BioLegend). After washing with FACS buffer (Biolegend) three times, the cells were analysed using Becton Dickinson LSRFortessa^TM and analyzed with FlowJo software. Isotype-matched monoclonal antibodies were used as controls. The data were analysed using Flowjo analysis software (FlowJo LLC, Ashland, OR, USA).

A short description of data set [6]: Body weight during in vivo therapy. The conditions noted are these: 7k-treated tumor-bearing mice during in vivo therapy. How it is done: In vivo experiments were conducted using 6-week-old male immunocompetent BALB/c and C57BL/6 with 18–20 g body weight (Orient Bio Inc., Seungnam, Republic of Korea). All animal experimental procedures were maintained and used in accordance with the Guidelines for the Care and Use of Laboratory Animals of the Institute of Laboratory Animal Center, Daegu-Gyeongbuk Medical Innovation Foundation (K-MEDI hub). The animal studies were conducted after approval by the institutional reviewer board on the Ethics of Animal Experiments of the Daegu-Gyeongbuk Medical Innovation Foundation (approval number: KMEDI-24041103-01).
Study 1: Antitumor activity of 7k alone in mice with either CT26 syngeneic model or MC38 syngeneic model. Mice were subcutaneously challenged with 5 × 10^5 either MC38 or CT26 cells. When tumor formation was detected via inspection and palpation, 7k treatment was initiated once a day for 14 days by oral gavage.
Study 2: Antitumor activity of combination with anti-PD1 and 7k in CT26 tumor bearing mice. Mice were subcutaneously challenged with 5 × 10^5 CT26 cells. Tumor bearing mice were divided into four groups as following; Group 1: vehicle, Group 2: 10 mg/kg anti-PD1, Group 3: 10 mg/kg 7k, and Group 4: 10 mg/kg anti-PD1 + 10 mg/kg 7k. 7k was administered by oral gavage once daily. […]

The values that follow come from paper PMC12567141, “Design, Synthesis and Biological Evaluation of Pyrazolopyrimidine Derivatives as Aryl Hydrocarbon Receptor Antagonists for Colorectal Cancer Immunotherapy” (Pharmaceutics, 2025).

As a reminder, the AUC(0-inf) is total exposure, with the tail of the curve extrapolated. Broadly, the AUC(0-t) is exposure summed from dosing to a finite time, without extrapolation to infinity. Higher therefore signals high exposure. In general, clearance refers to a measure of how efficiently the substance is removed, as volume per time. The term half-life denotes the time needed for the level to fall by half in the phase considered. The low end stands for rapid decline, the high end for slow decline. A word on the Cmax: it is the maximum level reached in the sampled fluid or tissue. The Tmax is the time from dosing to the highest level. The term bioavailability denotes dose-corrected exposure relative to a reference, in per cent.

On to `CC(C)n1cc2nc(-c3cc(F)cc(F)c3)nc(NCCc3c[nH]c4ccccc34)c2n1` [Compound 7k, N-(2-(1H-indol-3-yl)ethyl)-5-(3,5-difluorophenyl)-2-isopropyl-2H-pyrazolo [4,3-d]pyrimidin-7-amine], for which, in data set [1] (IV, 5 mg/kg), the area under the curve AUC(0-inf) is 5860 ng·h/mL, the AUC(0-t) is 5750 ± 740 ng·h/mL, the clearance was 14.3 mL/min/kg and the half-life came out at 4.54 h. Besides, in data set [1] (IV, 5 mg/kg, read-out: Vss (converted)), the Vd is 3.91 L/kg. In data set [1] (PO, 10 mg/kg), the AUC(0-inf) was 8230 ng·h/mL, the exposure AUC(0-t) is 8160 ± 3670 ng·h/mL, the maximum concentration (Cmax) was 2380 ng/mL and the Tmax was 0.67 ± 0.29 h. The molecule also gave a half-life in data set [1] (PO, 10 mg/kg) of 3.77 h. Besides, the bioavailability in data set [1] (PO, 10 mg/kg, read-out: Ft (%) bioavailability (converted)) was 71%. Moreover, the apoptosis result in data set [2] is recorded as “increase in apoptosis”. Also, in data set [3], the Bcl-2 expression result is reported as “downregulation of Bcl-2”; the “cleaved poly (ADP-ribose) polymerase and cleaved caspase 3” value is “upregulation of cleaved poly (ADP-ribose) polymerase and cleaved caspase 3”; the p21 expression result is reported as “increase in p21”; the p53 expression result is recorded as “upregulation of p53”. In data set [4], the “expression levels of AhR, AhRR, and IDO-1” value was “reduced the expression levels of AhR, AhRR, and IDO-1”. Besides, the PD-1 expression entry in data set [5] was “reduced PD-1 expression”. Moreover, in data set [6], the body weight result is “No abnormal reduction in body weight”.
